Results on two molecules are retold here after patent publication US20230027295A1, “FXIA INHIBITORS AND PREPARATION METHOD THEREFOR AND PHARMACEUTICAL USE THEREOF” (Shenzhen Salubris Pharmaceuticals Co., Ltd., priority 2019, published 2023).

Series [1] is described as follows: Cynomolgus monkey pharmacokinetics. The format is in vivo. Also noted: AUC: concentration or dose not given beside the values. The settings on record: for AUC / Cmax / Tmax / clearance / half-life / Vd: male, plasma; for Vd: read-out: Vss. From the text:
(§1) Example 53: Investigation of the Pharmacokinetic Characteristics of the Compounds of the Present Invention
(§2) SD rats: male, 180-250 g, purchased from Guangdong Medical Laboratory Animal Center. Cynomolgus monkey: male, 4-6 kg, purchased from Guangzhou Chunsheng Biological Research Institute Co., Ltd. Beagle dog: male, 8-12 kg, developed in Kanglong Chemical (Ningbo) New Drug Technology Co., Ltd.
(§3) Reagents: DMSO (dimethyl sulfoxide), PEG-400 (polyethylene glycol 400), normal brine, heparin, acetonitrile, formic acid, and propranolol (internal standard) are commercially available.
(§4) Instrumentation: Thermo Fisher Scientific LC-MS (U300 UPLC, TSQ […] ULTRA triple quadrupole mass spectrometer).
(§5) The compound was weighed and dissolved in DMSO-PEG-400-physiological brine (5:60:35, v/v/v) system. After the rats/monkeys were administered intravenously or by gavage, 200 μL of venous blood was collected at 5 min (not collected when administered by gavage), 15 min, 30 min, 1 h, 2 h, 4 h, 6 h, 8 h, and 24 h in heparinized EP tubes, centrifuged at 12000 rpm for 2 min, and the plasma was frozen at −80° C. for testing. A certain amount of the test substance was precisely weighed and dissolved in DMSO to 1 mg/mL, which was used as a stock solution. An appropriate amount of compound stock solution was accurately pipetted and diluted with acetonitrile to prepare a standard series of solutions. 20 μL of each of the above standard series solutions were accurately pipetted, added with 180 μL of blank plasma, vortexed and mixed to prepare plasma samples equivalent to plasma concentrations of 1, 3, 10, 30, 100, 300, 1000, 3000 and 5000 ng/mL. Two-sample analysis was performed for each concentration to establish a standard curve. 20 μL of plasma was taken out, added with 200 μL of internal standard propranolol (5 ng/mL) in acetonitrile, vortexed and mixed. It was centrifuged at 4000 rpm for 5 min, and the supernatant was collected for LC-MS analysis. LC-MS detection conditions were as follows:
(§6) Chromatographic column: Thermo Scientific […] GOLD C-18 UPLC column, 100*2.1 mm, 1.9 μm.
(§7) Mobile phase: water (0.1% formic acid)-acetonitrile for gradient elution according to the table below.
(§8) After blood drug concentrations being detected by LC-MS, WinNonlin 6.1 software was used to calculate pharmacokinetic parameters by non-compartmental model method.

A further series is described as follows: Caco-2 permeability. The format is in vitro ADME. The settings on record: human. How it is done: Example 54: Investigation of the Caco-2 Data of the Compounds of the Present Invention
Medium: DMEM (Corning), FBS (Corning), double antibody (Solarbio), 96-well HTS transwell plate (Corning), Caco-2 cells.
Experimental method: Caco-2 cells were cultured on 96-well HTS transwell plate for 14-18 days, and the TEER value of each well was detected to ensure that the cells in each well formed a complete monolayer. Drug was added and it was incubated for 2h to detect the drug concentrations of A-B and B-A.
Data processing: PappA-B and PappB-A values were calculated: Papp=(VA×[drug]acceptor)/(Area×Time×[drug]initial, donor); Efflux Ratio was calculated: Efflux Ratio=Papp(B-A)/Papp(A-B).
In general terms: Passage across Caco-2 layers is used to estimate intestinal permeability.

For the next series, the target named is Human Factor XIa (Homo sapiens, UniProt P03951). The experiment in a line: Inhibition of human coagulation factor XIa by absorptiometry (substrate S-2366). In kind it is biochemical. The settings on record: 37° C., 20 min incubation, absorbance 405 nm; read-out: hFXIa IC50. The procedure:
Example 50: Detection of the Biological Activity of the Compounds of the Present Invention on the Inhibition of Human Coagulation Factor XIa by Absorptiometry
Buffer: 145 mM NaCl, 5 mM KCl, 1 mg/mL PEG 8000, 30 mM HEPES, pH 7.4
10 mM test compound dissolved in 100% DMSO was diluted with 100% DMSO to […]; 98 μL of FXIa enzyme solution (77.7 ng/mL) was added to each well of a 96-well plate, and 98 μL of buffer was added to the blank wells. 2 μL of compounds of different concentrations were added, and the blank and control wells were added with DMSO instead. They were mixed with a shaker, and incubated at 37° C. for 20 minutes.
Finally, 100 μL of 800 μM substrate was added to each well, and its absorbance was measured at 405 nm.

Another series can be described thus: Rat pharmacokinetics. The format is in vivo, SD rats. Further details: AUC: concentration or dose not given beside the values.
Description: as §1, §2, §3, §4, §5, §6, §7, §8

A further series relates to human plasma. The experiment in a line: Anticoagulant effect on human plasma in vitro (APTT determination). The format is biochemical. How it is done:
Example 51: Determination of the Anticoagulant Effect of the Compounds of the Present Invention on Human Plasma In Vitro
Plasma: Human blood was collected in a vacuum blood collection tube containing 3.2% sodium citrate (volume ratio 1:9), centrifuged at 3000 rpm for 10 min at room temperature, and the plasma was collected, divided into EP tubes, and stored at −80° C.
Reagents: APTT assay kit (Activated partial thromboplastin time assay kit, mindray), calcium chloride solution.
Instrument: coagulation meter (mindray, C2000-A)
The frozen human plasma in aliquots was thawed at room temperature and mixed well. 10 mM test compound dissolved in 100% DMSO was diluted with 100% DMSO to 1500, 750, 375, 187.5, 93.75, 46.88, 23.44, 11.72 μM. 98 μL of human plasma was added to a 1.5 mL EP tube, then 2 μL of compounds of different concentrations were added, and 2 μL of 100% DMSO was added for the blank group. They were incubated under a water bath at 37° C. for 10 min, and the samples were placed in the corresponding position of the coagulation analyzer to conduct APTT determination of the compounds.
Curve fitting was performed with GraphPad Prism software, and EC1.5× and EC2× values were calculated respectively, i.e., the concentrations of the compounds corresponding to the APTT of 1.5× and 2× blank control group.

Setting [2] is: Caco-2 monolayer, 2h incubation.

Sequence of Human Factor XIa (P03951 388-625 limits assumed): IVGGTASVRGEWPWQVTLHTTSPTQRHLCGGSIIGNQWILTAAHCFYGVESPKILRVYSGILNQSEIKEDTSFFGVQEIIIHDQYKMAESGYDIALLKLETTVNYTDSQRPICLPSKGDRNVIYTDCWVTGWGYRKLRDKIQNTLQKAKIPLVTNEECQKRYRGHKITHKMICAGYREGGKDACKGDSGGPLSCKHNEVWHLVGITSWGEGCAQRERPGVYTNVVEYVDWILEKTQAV
Sequence of Human Factor XIa (P03951 19-387 partner limits assumed): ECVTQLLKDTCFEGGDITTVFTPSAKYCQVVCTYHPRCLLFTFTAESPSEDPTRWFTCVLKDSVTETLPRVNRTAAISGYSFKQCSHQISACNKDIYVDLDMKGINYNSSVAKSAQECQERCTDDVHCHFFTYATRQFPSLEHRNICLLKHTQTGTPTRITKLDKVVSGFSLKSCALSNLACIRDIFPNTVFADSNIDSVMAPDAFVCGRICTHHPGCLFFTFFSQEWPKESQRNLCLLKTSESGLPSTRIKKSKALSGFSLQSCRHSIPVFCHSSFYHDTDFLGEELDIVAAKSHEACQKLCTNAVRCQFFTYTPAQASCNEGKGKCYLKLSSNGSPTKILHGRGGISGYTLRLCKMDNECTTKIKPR

A word on the AUC: it is concentration integrated over time. In general, Cmax refers to the maximum level reached in the sampled fluid or tissue. What is called Tmax is the time at which the peak concentration occurs. One may read the clearance as the rate of elimination divided by the concentration. The term half-life denotes the time needed for the level to fall by half in the phase considered. The term efflux ratio denotes the permeability from basolateral to apical divided by that in the opposite direction, in the common usage. In general, Papp A→B refers to how fast a substance crosses the layer from the apical side. The Papp B→A is the apparent permeability from the basolateral to the apical side of a cell layer. In series [1] (ig), `COc1cn([C@@H](Cc2ccccc2)C(=O)Nc2ccc(C(=O)O)cc2)c(=O)cc1-c1cc(Cl)ccc1C(C)=O` [Compound B, (S)-4-(2-(4-(2-acetyl-5-chlorophenyl)-5-methoxy-2-oxopyridinium-1(2H)-yl)-3-phenylpropanamido)benzoic acid, reference compound] came in with an F of 4.1%. For the same molecule, in series [1] (iv), the area under the curve (AUC) was 4.22 µg·h/mL, the concentration peaked (Cmax) at 8.76 µg/mL, the Tmax came to 0.083 h and the clearance amounted to 0.246 L/h/kg. For the same molecule, in series [1] (iv), the half-life was 1.2 h and the Vd was determined as 0.2 L/kg. Also, in series [1] (po, ig), the area under the curve (AUC) worked out at 1.49 µg·h/mL, the concentration peaked (Cmax) at 0.108 µg/mL, the time to peak (Tmax) stood at 2 h and the half-life is 8 h. Besides, the efflux ratio at 2 h in “Caco-2 permeability” (Caco-2, Papp(B-A)/Papp(A-B)) turned out to be 8.75. In the series “Caco-2 permeability” (setting [2]), this molecule displayed a Papp A→B at 2 h of 15.5 nm/s and an apparent permeability from basolateral to apical (Papp B→A) at 2 h of 136 nm/s.
For orientation: IC50 means the midpoint of a concentration-inhibition curve. Consider `COCCOc1nn([C@@H](Cc2ccccc2)C(=O)Nc2ccc(C(=O)O)cc2)c(=O)cc1-c1cc(Cl)ccc1C(C)=O` [Example 21, (S)-4-(2-(4-(2-acetyl-5-chlorophenyl)-3-(2-methoxyethoxy)-6-oxopyridazin-1(6H)-yl)-3-phenylpropanamido)benzoic acid], for which, on Human Factor XIa, the half-maximal inhibitory concentration (IC50) was 0.0219 µM. Moreover, the F in series [1] (ig) worked out at 6.3%. For the same molecule, in series [1] (iv), the AUC came to 0.455 µg·h/mL, the Cmax is 1.01 µg/mL, the time of peak concentration (Tmax) was 0.083 h and the clearance worked out at 1.1 L/h/kg. In series [1] (iv), the half-life was 1.27 h and the Vd stood at 0.699 L/kg. Further, in series [1] (po, ig), the AUC turned out to be 0.357 µg·h/mL, the Cmax was determined as 0.0272 µg/mL, the Tmax turned out to be 1.5 h and the half-life was 11.4 h. In the series “Rat pharmacokinetics” (ig), this molecule returned an F of 14.9%. Besides, in the series “Rat pharmacokinetics” (male, SD, plasma, iv), the area under the curve (AUC) came out at 0.743 µg·h/mL, the Cmax came to 1.6 µg/mL, the Tmax amounted to 0.0998 h and the clearance was found to be 1.52 L/h/kg. In the series “Rat pharmacokinetics” (male, SD, plasma, iv), this molecule showed a half-life of 0.492 h. In addition, in the series “Rat pharmacokinetics” (male, SD, plasma, iv, read-out: Vss), the Vd is 0.277 L/kg. Moreover, in the series “Rat pharmacokinetics” (male, SD, plasma, po, ig), the area under the curve (AUC) came to 0.608 µg·h/mL, the highest concentration (Cmax) came out at 0.166 µg/mL, the time of peak concentration (Tmax) was 1.5 h and the half-life is 2.32 h. In the series with human plasma (concentration giving APTT of 1.5× blank control), the “aPTT EC1.5×” value was found to be 0.777 µM. The “aPTT EC2×” value in the series with human plasma (concentration giving APTT of 2× blank control) turned out to be 3.848 µM.
